Measured values taken from PubChem BioAssay (NCI).
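Protocol summary: plate cells (96-well), add compound at 5 concentrations, incubate 48 h, interpolate endpoints linearly. GI50 = concentration required for 50% inhibition of growth. Definition used: TGI = concentration required for complete inhibition of growth.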

What was measured:
Assay in all cases: NCI tumour cell line growth inhibition, 48 h
[1] = tested on: COLO 205 colon
[2] = tested on: OVCAR-3 ovarian
[3] = tested on: RPMI-8226 leukemia
[4] = tested on: UACC-62 melanoma
[5] = tested on: MDA-MB-435
[6] = tested on: SF-295 CNS
[7] = tested on: SK-MEL-2 melanoma
[8] = tested on: SK-OV-3 ovarian
[9] = tested on: K-562 leukemia
[10] = tested on: HS 578T breast

SMILES	GI50 [1] [µM]	TGI [1] [µM]	GI50 [2] [µM]	TGI [2] [µM]	GI50 [3] [nM]	TGI [3] [µM]	GI50 [4] [nM]	TGI [4] [µM]	GI50 [5] [nM]	TGI [5] [µM]	GI50 [6] [nM]	TGI [6] [nM]	GI50 [7] [nM]	TGI [7] [µM]	GI50 [8] [nM]	TGI [8] [µM]	TGI [9] [µM]	GI50 [10] [µM]	TGI [10] [µM]	GI50 [9] [nM]
CN(C)c1ccc(Nc2c3ccccc3nc3cc(NC(=O)CCN4CCCC4)ccc23)cc1	0.309	1.76	0.81	2.25	185	0.711	774	2.11	1220	2.49	362	1510	1750	3.33	413	1.78				
CN(C)CCNC(=O)c1c2ccccc2cc2ccccc12		48.3		> 100		> 100		53.4				> 100000		36.8		> 100	67.1			
O=C(Cc1csc2nc(-c3ccc(Br)cc3)cn12)N/N=C/c1ccc(Cl)cc1Cl	75	> 100	34.9	> 100	80200	> 100	23300	67.7	31400	> 100	34700	> 100000	72000	> 100	> 100000	> 100		31.8	89.1	
Nc1c(C(=O)NC23CC4CC(CC(C4)C2)C3)[n+]([O-])c2ccccc2[n+]1[O-]		> 100		> 100		> 100		> 100				> 100000		> 100		> 100	> 100			
O=c1ccn(C2(CO)C=C(CO)C(O)C2O)c(=O)[nH]1 (centres undefined)		> 25.7		> 25.7		> 25.7		> 25.7						> 25.7		> 25.7	> 25.7			
COc1cc(C(=O)O/N=C(\N)Cc2cccc3ccccc23)cc(OC)c1OC	12.2	28.1	9.62	23.3	3020	12.6	2490	6.73	2400	6.42	3490	13700	14900	29.4	16500	30.6		6.64	41.4	
COc1ccc(/C=C\c2cc(OC)c(OC)c(OC)c2)cc1OCC(=O)Nc1nc2ccccc2s1	3.26	> 49.5			683	> 100	58.7	> 100			220	646	187	> 100	374	> 100	> 100	26	> 100	42.3
Nc1nccc2c1ccn2-c1cccc(NC(=O)c2ccc(N3CCOCC3)c(C(F)(F)F)c2)c1			0.318	1.41	992	4.98	429	6.12	163	> 50	371	1850	584	2.94	741	6.52	> 39.4	0.34	2.43	233
